This is an account of results in patent US8093248B2, “Compounds useful for the treatment of conditions associated with weight gain” (AstraZeneca AB (PUBL), priority 2007, dated 2012).

For experiment [1], the system named is JEG-3 cells. Put plainly: [3H]-thymidine incorporation in JEG-3 cells (JEG-3 protocol). It counts as cell-based. Particulars: JEG-3 choriocarcinoma cell line, FIG. 6. The procedure:
In JEG-3 cells (choriocarcinoma cell line) leptin is able to stimulate proliferation up to 3 fold (Biol. Reprod. (2007) 76: 203-10). […] The radioactivity incorporated by the cells is an index of their proliferative activity and is measured in counts per minute (CPM) with a liquid scintillation beta counter.
This finding can be applied to test whether a compound is able to either reproduce the effect of leptin on cell proliferation (leptin receptor agonist mimetic) (i.e., a given compound will cause an increase in incorporated [^3H]-Thymidine by the cells) or to inhibit the effect of leptin (antagonistic effect) by preventing the leptin-mediated increase in [^3H]-thymidine incorporation.
(In general: Uptake of a labelled nucleoside into DNA is a usual measure of proliferation.)

Experiment [2] deals with JEG-3 cells. Conditions: Biol. Reprod. (2007) 76: 203-10; cited from earlier work.

Take “leptin: hormone synthesized in fat cells that is believed to act in the hypothalamus to reduce food intake and body weight”: the “concentration of maximal effect on [3H]-thymidine incorporation” value in experiment [1] turned out to be 100 nM. The EC50 in experiment [1] (read-out: EC50 of concentration-dependent increase in [3H]-thymidine incorporation) came to 2.1 nM. The stimulation of proliferation result in experiment [2] is listed as “up to 3 fold”.
